# Measurements published in patent US6632794B1, “Insulin-like growth factor agonist molecules” (Genentech, Inc., priority 1997, dated 2003).
# Experiments:
# hypophysectomized rats = assay: Long-term administration to hypophysectomized rats; format: in vivo, rat; settings: one week
# From the text: Young female SD rats were hypophysectomized at Taconic Laboratories and delivered several days later. The rats were then weighed frequently and those whose weight increased or decreased by more than 7 grams between 2 and 3 weeks following hypophysectomy were excluded from the study. Twenty-five rats were grouped randomly into five groups based on their body weight, and then randomly assigned to cages, with four rats per cage. The animals were allowed ad libitum access to food and water and housed in a room controlled for temperature and lighting.
# 1) Excipient pump, excipient injections;
# 2) (Leu^24,Ala^31)hIGF-I (10 μg/day, by SC minipump), excipient injections;
# 3) (Leu^24,Ala^31)hIGF-I (50 μg/day, by SC minipump), excipient injections;
# 4) Recombinant human GH (NUTROPIN™ brand from Genentech, Inc., 20 μg/day, by SC injection, two injections each of 10 μg/day), excipient minipump; or
# 5) (Leu^24,Ala^31)hIGF-I (50 μg/day, by SC minipump) plus recombinant human GH (20 μg/day, by SC injection, two injections each of 10 μg/day).
# The rats were dosed for one week.
# The mutant (Leu^24,Ala^31)hIGF-I was administered by osmotic minipumps (ALZET 2001™, Alza, Palo Alto, Calif.), which were placed in a subcutaneous tunnel in the dorsal neck region of the rats while they were anesthetized with KETAMINE™/XYLAZINE™ anesthesia. The pumps were filled with solutions so that the calculated daily dose was 50 μg or 10 μg, assuming that 24 μl of solution was delivered each day for one week.
# Recombinant human GH was administered for one week by twice daily SC injections of 10 μg in 100 μl volume.
# Body weights were measured daily in the morning. At the end of the week of dosing the animals were anesthetized via CO2 and exsanguinated via cardiac puncture. The remaining blood was allowed to clot and serum was separated and stored for further analysis.
# Spleen, thymus, heart, liver, kidney, and perirenal fat were removed and weighed. The tibia was removed and fixed in neutral buffered formalin for histological measurement of epiphyseal plate width.
# Serum chemistries were measured on an automated Chem I analyzer. Serum insulin concentration was measured using an RIA Kit supplied by Linco, Inc. To measure the IGF-I concentrations the serum was extracted using acid ethanol and the supernatant diluted to neutrality and assayed for IGF-I by RIA.
# Tibia were sectioned longitudinally, stained with Toluene Blue, and mounted on microscope slides. The tibial epiphyseal plate width was measured using an ocular micrometer attached to a microscope.
# Data were analyzed statistically by analysis of variance using one factor and two factor ANOVA.
# dwarf rats = assay: Long-term administration to GH-deficient dwarf (dw/dw) rats; format: in vivo, rat; settings: 150 μg of IGF-I agonist as printed
# [1] = target: T1, Type 1 IGF receptor (derived from placental membranes) (Homo sapiens, UniProt P08069); settings: Type 1 IGF receptor from placental membranes; Bayne et al.; read-out: half maximal inhibition of ligand binding; cited from earlier work
# T1 construct: Type 1 IGF receptor (derived from placental membranes); host or cells: placental membranes
# T1 sequence (P08069 31-736 limits assumed): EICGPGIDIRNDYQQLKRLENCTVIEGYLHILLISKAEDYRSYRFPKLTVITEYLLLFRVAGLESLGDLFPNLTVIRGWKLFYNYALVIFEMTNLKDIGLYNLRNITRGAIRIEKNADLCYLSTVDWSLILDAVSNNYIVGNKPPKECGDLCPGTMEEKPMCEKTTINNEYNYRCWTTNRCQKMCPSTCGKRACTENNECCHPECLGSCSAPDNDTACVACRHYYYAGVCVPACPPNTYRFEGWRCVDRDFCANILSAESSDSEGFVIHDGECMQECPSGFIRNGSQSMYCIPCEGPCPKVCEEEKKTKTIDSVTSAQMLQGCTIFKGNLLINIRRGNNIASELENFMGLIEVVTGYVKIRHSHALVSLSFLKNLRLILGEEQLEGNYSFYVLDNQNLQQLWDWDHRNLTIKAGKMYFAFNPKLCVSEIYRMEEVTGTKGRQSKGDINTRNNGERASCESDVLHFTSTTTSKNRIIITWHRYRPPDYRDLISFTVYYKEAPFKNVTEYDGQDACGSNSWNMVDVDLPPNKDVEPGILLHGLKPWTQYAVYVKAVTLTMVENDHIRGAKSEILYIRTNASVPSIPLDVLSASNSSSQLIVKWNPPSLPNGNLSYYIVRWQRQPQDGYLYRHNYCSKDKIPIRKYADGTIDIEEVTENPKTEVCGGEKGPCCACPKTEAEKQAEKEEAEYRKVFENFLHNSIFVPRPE
# T1 sequence (P08069 741-1367 partner limits assumed): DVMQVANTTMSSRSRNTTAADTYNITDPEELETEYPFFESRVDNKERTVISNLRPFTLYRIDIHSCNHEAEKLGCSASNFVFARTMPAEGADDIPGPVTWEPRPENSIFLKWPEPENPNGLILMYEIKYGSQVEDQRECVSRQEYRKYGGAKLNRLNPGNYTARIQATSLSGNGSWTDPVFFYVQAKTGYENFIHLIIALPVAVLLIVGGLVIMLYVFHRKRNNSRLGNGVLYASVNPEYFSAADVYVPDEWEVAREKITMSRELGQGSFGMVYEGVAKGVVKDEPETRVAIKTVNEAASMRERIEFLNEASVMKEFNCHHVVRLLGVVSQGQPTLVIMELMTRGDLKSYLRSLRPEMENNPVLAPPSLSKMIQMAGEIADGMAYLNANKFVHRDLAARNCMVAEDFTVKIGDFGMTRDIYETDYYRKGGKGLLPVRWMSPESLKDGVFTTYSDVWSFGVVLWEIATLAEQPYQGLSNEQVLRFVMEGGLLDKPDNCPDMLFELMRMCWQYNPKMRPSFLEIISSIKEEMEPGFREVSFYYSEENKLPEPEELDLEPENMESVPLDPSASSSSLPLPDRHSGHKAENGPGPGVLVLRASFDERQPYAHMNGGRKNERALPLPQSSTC
# IGFBP-3 = IGFBP-3 (Homo sapiens, UniProt P17936); assay: ^125I-IGF-I competitive binding plate assay, IGFBP-3; settings: displacement of ^125I-IGF-I, FIG. 7
# IGFBP-3, sequence (P17936 28-291): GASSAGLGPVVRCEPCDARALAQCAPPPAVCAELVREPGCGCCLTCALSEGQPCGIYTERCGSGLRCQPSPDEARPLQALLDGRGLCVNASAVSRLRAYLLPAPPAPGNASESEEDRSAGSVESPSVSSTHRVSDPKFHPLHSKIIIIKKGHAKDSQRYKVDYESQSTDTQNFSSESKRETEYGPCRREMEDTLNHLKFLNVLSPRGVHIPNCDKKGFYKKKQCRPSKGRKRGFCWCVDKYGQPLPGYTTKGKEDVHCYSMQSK
# Protocol: The mutant (Leu^24,Ala^31)hIGF-I was also tested for its ability to displace radio-labeled rhIGF-I off the IGFBPs in a competitive binding assay. This assay involves coating recombinant human (rh) IGFBP-1 or rhIGFBP-3 (160 ng/ml) onto 96-well plates overnight, blocking the plates for one hour with 0.5% BSA, adding rhIGF-I (250-0.08 ng/ml) or (Leu^24,Ala^31)hIGF-I for 1 hour, then adding 20,000 cpm of ^125I-IGF-I and incubating for 2 hours before washing and counting.
# As an additional assay of peptide activity, several peptides were tested in an assay using ^125I-labeled IGF-I to measure inhibition of IGFBP binding, as described in Example 1 (Assay 3). Serial dilutions of peptide were added to an IGFBP-1 or an IGFBP-3 plate. Thereafter, ^125I-labeled IGF-I was added and the plates were incubated for 2 hours. The plates were then washed and counted to determine the amount of bound IGF-I.
# [2] = tested on: endogenous IGFBPs present in human serum; assay: Displacement of ^125I-IGF-I from IGFBPs in human serum (FPLC-SEC); format: binding; settings: normal human serum, IGF mutant 40 μg/ml, mean ± SD, n = 3
# Protocol: To determine if the IGF mutant could displace IGF-I from endogenous IGFBPs present in human serum, the following experiment was performed. Radiolabeled rhIGF-I (^125-IGF-I) was incubated with normal human serum samples at a concentration of 33 ng/ml for 16 hr at 4° C. to allow for the formation of […] complexes. […] The samples (n=3) were then analyzed by FPLC size-exclusion chromatography (FPLC-SEC) to determine the relative size and amounts of the ^125I-IGF-I:IGFBP complexes.
# Data are expressed as cpm per fraction (n=1).
# This Example tests an IGFBP-3-specific peptide, BP15, for its ability to block the binding of ^125I-IGF-I in human serum. Human serum was incubated with ^125I-IGF-I±the peptide and the amount of tracer bound to IGFBPs via size-exclusion chromatography was measured.
substance,measurement,setting,value
"(Leu^24,Ala^31)hIGF-I",blood levels of endogenous rat IGF-I,hypophysectomized rats,lower
same,total IGF-I (rat and human) in blood,hypophysectomized rats; IGF agonist 10 μg,not a rise in total IGF
same,body weight gain,hypophysectomized rats; IGF agonist 10 μg/day SC minipump,mean weight gain that was numerically smaller than that of the control group
same,total IGF-I (rat and human) in blood,hypophysectomized rats; IGF agonist 50 μg alone or with GH,rise in total IGF-I
same,body weight gain,"hypophysectomized rats; IGF agonist 50 μg/day SC minipump, hGH 20 μg/day SC, or both",only a small amount of activity
same,absolute thymus weight,"hypophysectomized rats; IGF agonist 50 μg/day, hGH 20 μg/day, or both",increased
same,absolute and relative heart weight,"hypophysectomized rats; IGF agonist 10 and 50 μg, hGH 20 μg/day, or combination",significant increase in the absolute and the relative size of the heart
same,absolute spleen weight,"hypophysectomized rats; IGF mutant 10 and 50 μg/day, hGH 20 μg/day, or hGH plus 50 μg/day",increased by both doses
same,bone growth (tibial epiphyseal plate width),hypophysectomized rats; low-dose mutant (10 μg/day),did not increase bone growth
same,bone growth (tibial epiphyseal plate width),hypophysectomized rats; mutant 50 μg/day alone or with rhGH,significant increase in bone growth
same,total IGF-I (rat and human) in blood,dwarf rats,rise in total IGF-I
same,IC50,[1],2000 nM
same,binding affinity to recombinant IGFBP-3,IGFBP-3,affinity only several fold different from that of wild-type hIGF-I
same,"Free (˜7 kDa) ^125I-IGF-I, percent of total radioactivity",[2]; 0 hr,9.3 ± 2.3%
same,"^125I-IGF-I in ˜44 kDa range, percent of total radioactivity",[2]; 0 hr,60.5 ± 0.8%
same,"^125I-IGF-I in ˜150 kDa range, percent of total radioactivity",[2]; 0 hr,30.3 ± 1.4%
same,"Free (˜7 kDa) ^125I-IGF-I, percent of total radioactivity",[2]; 0.5 hr,38.2 ± 3.7%
same,"^125I-IGF-I in ˜44 kDa range, percent of total radioactivity",[2]; 0.5 hr,37.3 ± 2.9%
same,"^125I-IGF-I in ˜150 kDa range, percent of total radioactivity",[2]; 0.5 hr,24.4 ± 0.8%
same,"Free (˜7 kDa) ^125I-IGF-I, percent of total radioactivity",[2]; 3 hr,61.9 ± 2.6%
same,"^125I-IGF-I in ˜44 kDa range, percent of total radioactivity",[2]; 3 hr,27.8 ± 1.5%
same,"^125I-IGF-I in ˜150 kDa range, percent of total radioactivity",[2]; 3 hr,10.3 ± 1.1%
same,"Free (˜7 kDa) ^125I-IGF-I, percent of total radioactivity",[2]; 24 hr,81.9 ± 0.5%
same,"^125I-IGF-I in ˜44 kDa range, percent of total radioactivity",[2]; 24 hr,12.6 ± 0.4%
same,"^125I-IGF-I in ˜150 kDa range, percent of total radioactivity",[2]; 24 hr,5.5 ± 0.1%
